Values after ≈ are worked out from the molar mass of the structure shown.
Tests used:
[1] = system: CaES-17 (esophageal cancer cell); assay: MTT solid tumor cell growth inhibition, 72 h; type: cell-based, human; conditions: Homo sapiens, CaEs17, CaES-17, 72 h; for IC50: read-out: IC50; for IC90: read-out: IC90
Method: (§1) Human solid tumor cell lines: Hep-2 ([…]), A549 (human lung cancer), CaES-17 (esophageal cancer cell), PC-3 (prostate cancer), CNE (nasopharyngeal carcinoma cell), and SK-OV-3 (ovarian cancer cell), all of which are purchased from China Center For Type Culture Collection; RKO (human colon adenocarcinoma cell), MGC 803 (human gastric cancer cell), MG63 (osteosarcoma) and U87 MG (malignant glioma cell), all of which are purchased from Fuxiang Bio-tech Co. Ltd., Shanghai, China; PANC-1 (pancreatic cancer), Huh7 (human liver cancer cell), Becap37 (human breast cancer cell), and Hela (human cervical cancer cell), all of which are donated by Cancer Research Institute of Zhejiang University, China.
(§2) Obtaining 4000 well-growing human solid tumor cells and inoculating them into wells of a 96-well cell culture plate. The culture medium is DMEM High Glucose cell culture medium containing 10% fetal bovine serum. The plate is placed in a carbon dioxide cell incubator (5% CO2) at 37° C. and incubating for 24 hours. After adding the homoharringtonine derivatives of different concentration and mixing uniformly, the plate is placed in a carbon dioxide cell incubator (5% CO2) at 37° C. and incubating for 72 hours. Then the viable cell concentration is determined by the MTT method and the cell viability (%) after drug treatment is calculated. In this experiment, the cell viability of control group (not treated with any compound) is set as 100%.

PC-3 (prostate cancer) = assay: MTT solid tumor cell growth inhibition, 72 h; type: cell-based, human; conditions: Homo sapiens, PC-3, 72 h; for IC50: read-out: IC50; for IC90: read-out: IC90
Method: as §1, §2

MG63 (osteosarcoma) = assay: MTT solid tumor cell growth inhibition, 72 h; type: cell-based, human; conditions: Homo sapiens, MG 63, 72 h; for IC50: read-out: IC50; for IC90: read-out: IC90
Method: as §1, §2

[2] = system: PANC-1 (pancreatic cancer); assay: MTT solid tumor cell growth inhibition, 72 h; type: cell-based, human; conditions: Homo sapiens, PANC-1, 72 h; for IC50: read-out: IC50; for IC90: read-out: IC90
Method: as §1, §2

[3] = system: SK-OV-3 (ovarian cancer cell); assay: MTT solid tumor cell growth inhibition, 72 h; type: cell-based, human; conditions: Homo sapiens, SK-OV-3, 72 h; for IC50: read-out: IC50; for IC90: read-out: IC90
Method: as §1, §2

[4] = system: U87 MG (malignant glioma cell); assay: MTT solid tumor cell growth inhibition, 72 h; type: cell-based, human; conditions: Homo sapiens, U-87 MG; for IC50: read-out: IC50; for IC90: read-out: IC90
Method: as §1, §2

[5] = system: CNE (nasopharyngeal carcinoma cell); assay: MTT solid tumor cell growth inhibition, 72 h; type: cell-based, human; conditions: Homo sapiens; for IC50: read-out: IC50; for IC90: read-out: IC90
Method: as §1, §2

[6] = system: K562/adr (drug-resistant, chronic myeloid leukemia, CML); assay: MTT leukemia cell growth inhibition, 72 h; type: cell-based, human; conditions: Homo sapiens, K562/Adr; for IC50: read-out: IC50; for IC90: read-out: IC90
Description: (§3) Leukemia cell lines: K562/adr (drug-resistant, chronic myeloid leukemia, CML), NB4 (acute promyelocytic leukemia, AML), Kasumi-1 (acute myeloid leukemia M2 type, AML-M2), Jurkat (acute lymphoblastic leukemia, ALL), all of which are donated by Cancer Research Institute of Zhejiang University, China; and H9 (acute lymphoblastic leukemia, ALL), which is purchased from China Center for Type Culture Collection.
(§4) Obtaining 6000 well-growing leukemia cells and inoculating them into wells of a 96-well cell culture plate. The culture medium is the 1640 cell culture medium containing 10% fetal bovine serum. After adding the homoharringtonine derivatives of different concentrations and mixing uniformly, placing the plate in a carbon dioxide cell incubator (5% CO2) at 37° C. and incubating for 72 hours. Then the viable cell concentration is determined by the MTT method. In this experiment, the cell viability in control group (not treated with any compound) is set as 100%.

[7] = system: H9 (acute lymphoblastic leukemia, ALL); assay: MTT leukemia cell growth inhibition, 72 h; type: cell-based, human; conditions: Homo sapiens, H9, 72 h; for IC50: read-out: IC50; for IC90: read-out: IC90
Description: as §3, §4

[8] = system: Kasumi-1 (acute myeloid leukemia M2 type, AML-M2); assay: MTT leukemia cell growth inhibition, 72 h; type: cell-based, human; conditions: Homo sapiens, Kasumi-1, 72 h; for IC50: read-out: IC50; for IC90: read-out: IC90
Description: as §3, §4

[9] = system: Jurkat (acute lymphoblastic leukemia, ALL); assay: MTT leukemia cell growth inhibition, 72 h; type: cell-based, human; conditions: Homo sapiens; for IC50: read-out: IC50; for IC90: read-out: IC90
Description: as §3, §4

[10] = system: NB4 (acute promyelocytic leukemia, AML); assay: MTT leukemia cell growth inhibition, 72 h; type: cell-based, human; conditions: Homo sapiens, NB4, 72 h; for IC50: read-out: IC50; for IC90: read-out: IC90
Description: as §3, §4

[11] = system: RPMI8226 (multiple myeloma); assay: MTT multiple myeloma cell growth inhibition, 72 h; type: cell-based, human; conditions: Homo sapiens, RPMI-8226, RPMI8226, 72 h; for IC50: read-out: IC50; for IC90: read-out: IC90
Method: Multiple myeloma and lymphoma cell lines: RPMI8226 (multiple myeloma), purchased from Fuxiang Bio-tech Co. Ltd., Shanghai, China.
as §4, with “method.” for “method. In this experiment, the cell viability in control group (not treated with any compound) is set as 100%.”

A549 (human lung cancer) = assay: MTT solid tumor cell growth inhibition, 72 h; type: cell-based; conditions: Homo sapiens, A549, 72 h; for IC50: read-out: IC50; for IC90: read-out: IC90
Method: as §1, §2

[12] = system: Becap37 (human breast cancer cell); assay: MTT solid tumor cell growth inhibition, 72 h; type: cell-based; conditions: Homo sapiens, Becap37, 72 h; for IC50: read-out: IC50; for IC90: read-out: IC90
Method: as §1, §2

[13] = system: MGC 803 (human gastric cancer cell); assay: MTT solid tumor cell growth inhibition, 72 h; type: cell-based; conditions: Homo sapiens, MGC 803, 72 h; for IC50: read-out: IC50; for IC90: read-out: IC90
Method: as §1, §2

[14] = system: Hela (human cervical cancer cell); assay: MTT solid tumor cell growth inhibition, 72 h; type: cell-based; conditions: Homo sapiens, HeLa; for IC50: read-out: IC50; for IC90: read-out: IC90
Method: as §1, §2

[15] = system: RKO (human colon adenocarcinoma cell); assay: MTT solid tumor cell growth inhibition, 72 h; type: cell-based; conditions: Homo sapiens; for IC50: read-out: IC50; for IC90: read-out: IC90
Method: as §1, §2

[16] = system: Huh7 (human liver cancer cell); assay: MTT solid tumor cell growth inhibition, 72 h; type: cell-based; conditions: Homo sapiens, Huh-7, Huh7, 72 h; for IC50: read-out: IC50; for IC90: read-out: IC90
Method: as §1, §2

[17] = system: Hep-2 (human hepatocellular carcinoma); assay: MTT solid tumor cell growth inhibition, 72 h; type: cell-based; conditions: Homo sapiens, HEp-2, Hep2, 72 h; for IC50: read-out: IC50; for IC90: read-out: IC90
Method: as §1, §2

SMILES | IC50 [1] [µg/mL] | IC90 [1] [µg/mL] | IC50 (PC-3 (prostate cancer)) [µg/mL] | IC90 (PC-3 (prostate cancer)) [µg/mL] | IC50 (MG63 (osteosarcoma)) [µg/mL] | IC90 (MG63 (osteosarcoma)) [µg/mL] | IC50 [2] [µg/mL] | IC90 [2] [µg/mL] | IC50 [3] [µg/mL] | IC90 [3] [µg/mL] | IC50 [4] [µg/mL] | IC90 [4] [µg/mL] | IC50 [5] [µg/mL] | IC90 [5] [µg/mL] | IC50 [6] [µg/mL] | IC90 [6] [µg/mL] | IC50 [7] [µg/mL] | IC90 [7] [µg/mL] | IC50 [8] [µg/mL] | IC90 [8] [µg/mL] | further results
COC1=C[C@]23CCCN2CCc2cc4c(cc2[C@@H]3[C@@H]1OC(=O)[C@@](O)(CCCC(C)(C)O)CC(=O)N1CCN(C(C)C)CC1)OCO4 [BS-HH-034] | 1.91 (≈ 2.98 µM) | 16 (≈ 24.9 µM) | 0.91 (≈ 1.42 µM) | > 16 | 0.32 (≈ 0.499 µM) | 16 (≈ 24.9 µM) | 1.94 (≈ 3.02 µM) | > 16 | 2.81 (≈ 4.38 µM) | > 16 | 0.89 (≈ 1.39 µM) | 5.74 (≈ 8.94 µM) | 0.49 (≈ 0.763 µM) | 16 (≈ 24.9 µM) | 4.53 (≈ 7.06 µM) | 16 (≈ 24.9 µM) | 0.6 (≈ 0.935 µM) | 2.7 (≈ 4.21 µM) | 0.31 (≈ 0.483 µM) | 1.77 (≈ 2.76 µM) | IC50 [9]: 0.46 µg/mL (≈ 0.717 µM); IC90 [9]: 16 µg/mL (≈ 24.9 µM); IC50 [10]: 0.48 µg/mL (≈ 0.748 µM); IC90 [10]: 2.3 µg/mL (≈ 3.58 µM); IC50 [11]: 0.47 µg/mL (≈ 0.732 µM); IC90 [11]: 3.72 µg/mL (≈ 5.8 µM); IC50 (A549 (human lung cancer)): 1.74 µg/mL (≈ 2.71 µM); IC90 (A549 (human lung cancer)): > 16 µg/mL; IC50 [12]: 0.81 µg/mL (≈ 1.26 µM); IC90 [12]: > 16 µg/mL; IC50 [13]: 0.81 µg/mL (≈ 1.26 µM); IC90 [13]: 11.8 µg/mL (≈ 18.4 µM); IC50 [14]: 1.97 µg/mL (≈ 3.07 µM); IC90 [14]: > 16 µg/mL; IC50 [15]: 0.18 µg/mL (≈ 0.28 µM); IC90 [15]: 1.25 µg/mL (≈ 1.95 µM); IC50 [16]: 1.05 µg/mL (≈ 1.64 µM); IC90 [16]: > 16 µg/mL; IC50 [17]: 1.29 µg/mL (≈ 2.01 µM); IC90 [17]: > 16 µg/mL
COC1=C[C@]23CCCN2CCc2cc4c(cc2[C@@H]3[C@@H]1OC(=O)[C@@](O)(CCCC(C)(C)O)CC(=O)N1CCN(c2ccccn2)CC1)OCO4 [BS-HH-044] | 1.63 (≈ 2.41 µM) | 16 (≈ 23.6 µM) | 0.78 (≈ 1.15 µM) | > 16 | 0.8 (≈ 1.18 µM) | > 16 | 1.91 (≈ 2.82 µM) | > 16 | 3.97 (≈ 5.87 µM) | > 16 | 0.64 (≈ 0.946 µM) | 16 (≈ 23.6 µM) | 0.76 (≈ 1.12 µM) | > 16 | 5.18 (≈ 7.65 µM) | 16 (≈ 23.6 µM) | 1.41 (≈ 2.08 µM) | 16 (≈ 23.6 µM) | 0.38 (≈ 0.561 µM) | 2.25 (≈ 3.32 µM) | IC50 [9]: 0.48 µg/mL (≈ 0.709 µM); IC90 [9]: 16 µg/mL (≈ 23.6 µM); IC50 [10]: 0.25 µg/mL (≈ 0.369 µM); IC90 [10]: 0.64 µg/mL (≈ 0.946 µM); IC50 [11]: 0.48 µg/mL (≈ 0.709 µM); IC90 [11]: 3.36 µg/mL (≈ 4.96 µM); IC50 (A549 (human lung cancer)): 1.76 µg/mL (≈ 2.6 µM); IC90 (A549 (human lung cancer)): > 16 µg/mL; IC50 [12]: 0.71 µg/mL (≈ 1.05 µM); IC90 [12]: > 16 µg/mL; IC50 [13]: 0.74 µg/mL (≈ 1.09 µM); IC90 [13]: > 16 µg/mL; IC50 [14]: 1.91 µg/mL (≈ 2.82 µM); IC90 [14]: > 16 µg/mL; IC50 [15]: 0.16 µg/mL (≈ 0.236 µM); IC90 [15]: 2.37 µg/mL (≈ 3.5 µM); IC50 [16]: 0.94 µg/mL (≈ 1.39 µM); IC90 [16]: > 16 µg/mL; IC50 [17]: 1.23 µg/mL (≈ 1.82 µM); IC90 [17]: > 16 µg/mL

— patent US9676789B2, “Aminated derivative of homoharringtonine, preparation method therefor, and application thereof” (HANGZHOU BENSHENG PHARMACEUTICAL CO., LTD., priority 2011, dated 2017)
